# Results: patent publication US7176217B2, “Azabicyclo compound matrix metalloprotease inhibitor and skin preparation” (Shiseido Co., Ltd., priority 2001, dated 2007)
# Biological target: T1, MMP-9 (crude enzyme solution derived from a mouse skin) (Mus musculus, UniProt P41245)
# T1 construct: crude enzyme solution derived from a mouse skin; from tissue; host or cells: mouse skin
# Assay: Gelatinase group MMPs inhibition test (gelatin zymography)
# Assay type: biochemical
# Set-up: key: ⊚: The band disappeared.; ◯: The band was slightly confirmed.; Δ: The band became narrower than control.; X: Unchanged
# Details: sample solution 100 μM; gel incubated overnight; size of MMP-9 band compared with control solution
# Procedure: A test material was dissolved in dimethyl sulfoxide (DMSO) to the concentration of 10 mM, to prepare a stock solution. The stock solution was diluted with a measuring buffer (0.05M tris at pH 7.5 containing 0.2M NaCl and 5 mM CaCl2) to adjust the concentration to 100 μM, which was used as a sample solution. As a control solution, a solution containing no test material was similarly prepared.
# As a gelatinase group enzyme, MMP-9 (crude enzyme solution derived from a mouse skin) was used. The test was performed according to a gelatin zymography method (“Bio-antioxidant provitamin C”, Nobuhiko Miwa ed., p. 76, 1999, Fragrance Journal, Tokyo).
# That is, a gel containing gelatin in which a predetermined amount of the crude enzyme solution had been subjected to electrophoresis in advance, was incubated overnight with a sample solution or a control solution. After the gel was stained, the appearing band corresponding to MMP-9 was evaluated by a decrease when its size compared with that of a band of control solution. Evaluation criteria was as follows: • ⊚: The band disappeared. • ◯: The band was slightly confirmed. • Δ: The band became narrower than control. • X: Unchanged.
# T1 sequence (P41245 108-730): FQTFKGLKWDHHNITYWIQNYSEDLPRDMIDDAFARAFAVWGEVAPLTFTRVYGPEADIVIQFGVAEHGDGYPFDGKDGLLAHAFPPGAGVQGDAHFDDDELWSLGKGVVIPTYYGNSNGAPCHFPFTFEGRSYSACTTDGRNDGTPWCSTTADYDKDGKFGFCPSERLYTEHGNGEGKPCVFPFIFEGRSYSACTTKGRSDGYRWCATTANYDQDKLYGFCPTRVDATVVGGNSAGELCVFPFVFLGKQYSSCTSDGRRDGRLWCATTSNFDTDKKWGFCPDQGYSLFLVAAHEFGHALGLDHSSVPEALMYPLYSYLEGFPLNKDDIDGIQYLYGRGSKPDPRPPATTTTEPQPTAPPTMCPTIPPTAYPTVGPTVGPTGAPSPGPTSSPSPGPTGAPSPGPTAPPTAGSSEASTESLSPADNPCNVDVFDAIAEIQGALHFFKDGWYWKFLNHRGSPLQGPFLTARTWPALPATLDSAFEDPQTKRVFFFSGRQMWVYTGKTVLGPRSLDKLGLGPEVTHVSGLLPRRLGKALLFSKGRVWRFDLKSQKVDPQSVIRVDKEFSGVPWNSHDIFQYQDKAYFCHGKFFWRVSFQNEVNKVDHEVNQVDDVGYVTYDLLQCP
row,SMILES,MMPs Inhibition
1,"COc1ccc(S(=O)(=O)N2[C@H]3CC[C@H](C3)[C@@H]2C(=O)NO)cc1 [Compound 3, (1S, 3R, 4R)—N-Hydroxy-2-[(4-methoxyphenyl)sulfonyl]-2-azabicyclo[2.2.1]heptane-3-carboxamide]",◯~⊚
2,"O=C(NO)[C@H]1[C@@H]2CC[C@@H](C2)N1S(=O)(=O)c1ccc(F)cc1 [Compound 13, (1S, 3R, 4R)-2-[(4-Fluorophenyl)sulfonyl]-N-hydroxy-2-azabicyclo[2.2.1]heptane-3-carboxamide]",◯
3,"COc1ccc(S(=O)(=O)N2C3CCC(CC3)[C@@H]2C(=O)NO)cc1 [Compound 7, (3R)—N-Hydroxy-2-[(4-methoxyphenyl)sulfonyl]-2-azabicyclo[2.2.2]octane-3-carboxamide]",◯~⊚
4,"O=C(NO)[C@H]1[C@@H]2CC[C@@H](C2)N1S(=O)(=O)c1ccc(Cl)cc1 [Compound 9, (1S, 3R, 4R)-2-[(4-Chlorophenyl)sulfonyl]-N-hydroxy-2-azabicyclo[2.2.1]heptane-3-carboxamide]",◯
5,"COc1ccc(S(=O)(=O)N2C3CCC(C3)C2C(=O)NO)cc1 (centres unmarked) [Compound 1, N-Hydroxy-2-[(4-methoxyphenyl)sulfonyl]-2-azabicyclo[2.2.1]heptane-3-carboxamide]",◯~⊚
6,"O=C(NO)[C@H]1[C@@H]2CC[C@@H](C2)N1S(=O)(=O)c1ccccc1 [Compound 8, (1S, 3R, 4R)—N-Hydroxy-2-(phenylsulfonyl)-2-azabicyclo[2.2.1]heptane-3-carboxamide]",◯
7,"COc1ccc(S(=O)(=O)N2[C@@H]3CC(C(C)(C)C)[C@H](C3)[C@@H]2C(=O)NO)cc1 (stereo partly drawn) [Compound 14, 5-(tert-Butyl)-(1R, 3R, 4S)—N-hydroxy-2-[(4-methoxyphenyl)sulfonyl]-2-azabicyclo[2.2.1]heptane-3-carboxamide]",◯
8,"CCCCOc1ccc(S(=O)(=O)N2[C@H]3CCC(C3)[C@@H]2C(=O)NO)cc1 [Compound 12, (1S, 3R, 4R)-2-[4-(Butoxyphenyl)sulfonyl]-N-hydroxy-2-azabicyclo[2.2.1]heptane-3-carboxamide]",⊚
